Common to all, as to type: functional
One assay relates to A498. Nature of the assay: Antiproliferative activity against human A498 cells assessed as mean cell growth at 10 uM incubated for 48 hrs by SRB assay relative to control. (In SRB staining, fixed cells bind dye roughly in proportion to their protein.)
A further assay has as its system UO-31. Nature of the assay: Antiproliferative activity against human UO-31 cells assessed as mean cell growth at 10 uM incubated for 48 hrs by SRB assay relative to control.
The subject of the next assay is NCI-H522. Nature of the assay: Antiproliferative activity against human NCI-H522 cells assessed as mean cell growth at 10 uM incubated for 48 hrs by SRB assay relative to control.
Another assay deals with MDA-MB-468. Kind of assay: Antiproliferative activity against human MDA-MB-468 cells assessed as mean cell growth at 10 uM incubated for 48 hrs by SRB assay relative to control.
The test system of the next assay is SNB-75. Kind of assay: Antiproliferative activity against human SNB-75 cells assessed as mean cell growth at 10 uM incubated for 48 hrs by SRB assay relative to control.
For the next assay, the system named is SK-OV-3. Kind of assay: Antiproliferative activity against human SK-OV-3 cells assessed as mean cell growth at 10 uM incubated for 48 hrs by SRB assay relative to control.
The test system of a further assay is NCI-H226. Nature of the assay: Antiproliferative activity against human NCI-H226 cells assessed as mean cell growth at 10 uM incubated for 48 hrs by SRB assay relative to control.
A further assay has as its system DU-145. Kind of assay: Antiproliferative activity against human DU-145 cells assessed as mean cell growth at 10 uM incubated for 48 hrs by SRB assay relative to control.

Structures are written as SMILES.

Take `CN1C(=O)N(C)C2Nn3c(s/c(=C\c4ccc([N+](=O)[O-])cc4)c3=O)=NC21` (configuration not stated): the Activity with A498 is listed as 99%. Turning to `CCN1C(=O)N(CC)C2Nn3c(s/c(=C\c4ccc(C(F)(F)F)cc4)c3=O)=NC21` (configuration not stated), the Activity with UO-31 is 100%.

With `CCN1C(=O)N(CC)C2Nn3c(s/c(=C\c4ccc(F)cc4)c3=O)=NC21` (configuration not stated), in the assay on NCI-H522, the Activity was 101%.

As for `CCN1C(=O)N(CC)C2Nn3c(s/c(=C\c4ccc([N+](=O)[O-])cc4)c3=O)=NC21` (configuration not stated), the Activity with MDA-MB-468 is reported as 67%. `CN1C(=O)N(C)C2Nn3c(s/c(=C\c4ccc(C(F)(F)F)cc4)c3=O)=NC21` (configuration not stated): the Activity with SNB-75 is 102%. On to `CN1C(=O)N(C)C2Nn3c(s/c(=C\c4ccccc4)c3=O)=NC21` (configuration not stated), for which the Activity in the assay on A498 came out at 97%.

Turning to `CCN1C(=O)N(CC)C2Nn3c(s/c(=C\c4ccc(Br)cc4)c3=O)=NC21` (configuration not stated), the Activity with SNB-75 was 95%. On to `CN1C(=O)N(C)C2Nn3c(s/c(=C\c4ccc(F)cc4)c3=O)=NC21` (configuration not stated), for which, in the assay with SK-OV-3, the Activity came to 103%. For `CN1C(=O)N(C)C2Nn3c(s/c(=C\c4cccc([N+](=O)[O-])c4)c3=O)=NC21` (configuration not stated), in the assay on NCI-H226, the Activity is given as 92%. Take `COc1ccc(/C=c2\sc3n(c2=O)NC2C(N=3)N(C)C(=O)N2C)cc1` (configuration not stated): the Activity in the assay on UO-31 was 98%.

`CC(=O)O[C@H]1C(=O)[C@@]2(C)[C@H]([C@H](OC(=O)c3ccccc3)[C@]3(O)C[C@H](OC(=O)[C@H](O)[C@@H](NC(=O)c4ccccc4)c4ccccc4)C(C)=C1C3(C)C)[C@]1(OC(C)=O)CO[C@@H]1C[C@@H]2O` [PACLITAXEL]: the Activity in the assay with DU-145 was found to be 15%. Consider `CN1C(=O)N(C)C2Nn3c(s/c(=C\c4ccc(Br)cc4)c3=O)=NC21` (configuration not stated), for which, in the assay on UO-31, the Activity amounted to 98%.
